Measured values published in patent publication US9223210B2, “Photosensitive compound, photosensitive resin, and photosensitive composition” (TOYO GOSEI CO., LTD., priority 2012, dated 2015).

Legend:
[1] = Solubility in neutral water (Test Example 1); format: physicochemical; conditions: 100 g of neutral water, water temperature 20° C.
Description: (§1) Solubility of each of the photosensitive compounds produced in Comparative Synthesis Examples 1 to 2 and Examples 2 to 5 (comparative photosensitive materials H and I, and photosensitive materials C to F) in 100 g of neutral water (water temperature: 20° C.) was assessed. The solubility in an aqueous phosphoric acid solution (liquid temperature: 20° C.) obtained by mixing phosphoric acid (4 g) and water (100 g), was also determined.

[2] = Solubility in aqueous phosphoric acid solution (Test Example 1); format: physicochemical; conditions: for Solubility in aq. phosphoric acid solution (104 g): liquid temperature 20° C., amount dissolved (complete dissolution where stated); for Solubility in aqueous phosphoric acid solution (in words): summary of Table 1
Description: as §1

[3] = phosphoric acid (4 g) and water (100 g)

| Compound | Solubility in water (100 g) [1] | Solubility in aq. phosphoric acid solution (104 g) [2, 3] | Solubility in aq. phosphoric acid solution (104 g), partial dissolution ([2]; phosphoric acid (4 g) and water (100 g), 20° C., amount giving only partial dissolution) | Solubility in aqueous phosphoric acid solution (in words) [2] |
| --- | --- | --- | --- | --- |
| 3-(4-azidophenyl)-N-(4,4′-dimethoxybutyl)-2-(4-imidazolylmethylphenyl)carbonylamino-prop-2-enamide [Photosensitive material D] | ≦0.1 g | 5 g (complete |  |  |
| COC(CCCNC(=O)C(=Cc1ccc(N=[N+]=[N-])cc1)NC(=O)c1ccccc1)OC [Comp. Photosensitive material H, 3-(4-azidophenyl)-N-(4,4′-dimethoxybutyl)-2-phenylcarbonylamino-prop-2-enamide] | ≦0.1 g | ≦0.1 g |  | very low solubility |
| COC(CCCNC(=O)C(=Cc1cccnc1)NC(=O)C=Cc1ccc(N=[N+]=[N-])cc1)OC [Comp. Photosensitive material I, 2-(3-(4-azidophenyl)prop-2-enoylamino)-N-(4,4-dimethoxybutyl)-3-(3-pyridyl)prop-2-enamide] | ≦0.1 g | 0.2 g (complete | 0.4 g (partial | lower than that of photosensitive materials C to F |
| COC(CCCNC(=O)C(=Cc1ccc(N=[N+]=[N-])cc1)NC(=O)c1ccc(CN2CCOCC2)cc1)OC [Photosensitive material C, 3-(4-azidophenyl)-N-(4,4′-dimethoxybutyl)-2-(4-morpholinomethylphenyl)carbonylamino-prop-2-enamide] | ≦0.1 g | 5 g (complete |  |  |

Now from value to compound, other results behind:

| Solubility in water (100 g) [1] | Solubility in aq. phosphoric acid solution (104 g) [2, 3] | Solubility in aq. phosphoric acid solution (104 g), partial dissolution ([2]; phosphoric acid (4 g) and water (100 g), 20° C., amount giving only partial dissolution) | Compound | Solubility in aqueous phosphoric acid solution (in words) [2] |
| --- | --- | --- | --- | --- |
| ≦0.1 g | 5 g (complete |  | C=CCN(CC=C)Cc1ccc(C(=O)NC(=Cc2ccc(N=[N+]=[N-])cc2)C(=O)NCCCC(OC)OC)cc1 [Photosensitive material E, 3-(4-azidophenyl)-N-(4,4′-dimethoxybutyl)-2-(4-diallylaminomethylphenyl)carbonylamino-prop-2-enamide] |  |
| ≦0.1 g | 5 g (complete |  | [N-]=[N+]=Nc1ccc(C=C(NC(=O)c2ccc(CN3CCOCC3)cc2)C(=O)NCCCC=O)cc1 [Photosensitive material F, 3-(4-azidophenyl)-N-(3-formylpropyl)-2-(4-morpholinomethylphenyl)carbonylamino-prop-2-enamide] |  |
